This passage reports IC50 results from US7276511B2, “Benzylamine derivative” (Zeria Pharmaceutical Co., Ltd., priority 2003, dated 2007).

The structures appear in SMILES notation. Structures can show the parent of a compound that is named as a salt.

In the first test the target is NK-1 receptor (Homo sapiens, UniProt P25103). Kind of test: NK-1 receptor-binding test ([3H]-Substance P, hNK1-CHO cells). More on the design: expressed in transfected cells; host or cells: CHO-K1 cells (ATCC: CCL-61), G418-resistant, hNK1-CHO.
Chain of NK-1 receptor (P25103 whole entry): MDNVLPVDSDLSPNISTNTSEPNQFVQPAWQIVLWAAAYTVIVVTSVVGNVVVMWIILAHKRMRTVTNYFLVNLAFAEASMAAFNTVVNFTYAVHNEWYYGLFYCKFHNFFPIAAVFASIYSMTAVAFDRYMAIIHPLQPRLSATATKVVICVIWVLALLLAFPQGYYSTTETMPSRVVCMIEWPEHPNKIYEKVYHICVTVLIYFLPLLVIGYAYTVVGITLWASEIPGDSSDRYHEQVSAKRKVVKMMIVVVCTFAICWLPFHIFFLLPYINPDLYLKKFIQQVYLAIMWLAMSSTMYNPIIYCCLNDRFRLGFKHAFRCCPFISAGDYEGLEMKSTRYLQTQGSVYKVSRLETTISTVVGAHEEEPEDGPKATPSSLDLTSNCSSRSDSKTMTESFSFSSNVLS
Details: not given
As to the method:
1. NK-1 Receptor-binding Test
1) Preparation of Human NK-1 Receptor Expression Cells
FuGene 6 transfection reagent (Boegringer Mannheim) (3 μL) was diluted in an F-12 culture broth (97 μL), and pCR3.1 plasmid to which human NK-1 receptor cDNA had been introduced (Invitrogen) (10 μL) was added thereto. The mixture was mixed and incubated for 15 minutes (transfection reagent). CHO-K1 cells (ATCC: CCL-61) were cultured for 24 hours, and the whole reagent prepared above was added to the cultured CHO-K1 cells ([…]). Subsequently, culture was performed in the presence of G418 (Stratagene), and the resistant cells were employed as cells into which human NK-1 receptor gene was introduced (hNK1-CHO).
2) Subcultivation of hNK1-CHO Cells
The hNK1-CHO cells were treated with trypsin-EDTA and subcultivated in an F-12 culture broth (containing 10% fetal bovine serum, 10 mM HEPES, 100 U/mL, penicillin, 100 μg/mL streptmycin, 400 μg/mL G418) in a 75-cm^2 flask (FALCON). Cells to be employed in the receptor-binding experiment were added to a 24-well plate (IWAKI) at 1×10^5 cells/well, and subcultured for 48 hours at 37° C. under 95% […] and 5% CO2.
3) Receptor-binding Experiment
When the hNK1-CHO cells became subconfluent on the 24-well plate, an F-12 culture broth (containing 10 mM HEPES and 0.1% fetal bovine serum) (450 μL), [^3H]-Substance P (Amersham, final concentration 0.5 nM), and a test compound were added to the cells, and the mixture was incubated for 40 minutes at 37° C. For the measurement of non-specific binding, L703606 (Sigma) was added instead of the test compound. After completion of incubation, the mixture was washed with ice-cooled phosphate buffered saline containing 0.1% fetal bovine serum, and the cells were lysed with 1N NaOH (0.5 mL). The lysate was transfered to a plastic vial containing UltimaGold MV (5 mL), and the radioactivity was determined by means of a liquid liquid scintillation counter (Packard, 2000CA).
Percent radioactive ligand-receptor binding inhibition of each test compound was calculated by use of the following equation, and IC50 (nM) was determined through pseudo-Hill analysis.
Percent inhibition (%)=[1−(C−A)/(B−A)]×100
A: Radioactivity attributed to non-specific binding
B: Radioactivity without test compound
C: Radioactivity with test compound
In turn, `CN(C[C@](CCCN1CCC2(CC1)c1ccccc1C[S@+]2[O-])(c1ccc(Cl)c(Cl)c1)N(C)C(=O)Oc1ccccc1)C(=O)CC(F)(F)F` [Compound No. 591, phenyl{1-(3,3,3-trifluoro-N-methylpropanamido)-2-(S)-(3,4-dichlorophenyl)-5-[spiro(benzo(c)thiophene-(2S)-oxido-1(3H),4′-piperidin)-1′-yl]pentan-2-yl}methylcarbamate hydrochloride] showed an IC50 of 6.9 nM.

As for `CN(C[C@](CCCN1CCC2(CC1)c1ccccc1C[S@+]2[O-])(c1ccc(Cl)c(Cl)c1)N(C)C(=O)Oc1ccc(Cl)cc1)C(=O)CC(F)(F)F` [Compound No. 633, 4-chlorophenyl(1-(3,3,3-trifluoro-N-methylpropanamido)-2-(S)-(3,4-dichlorophenyl)-5-[spiro(benzo(c)thiophene-(2S)-oxido-1(3H),4′-piperidin)-1′-yl]pentan-2-yl}methylcarbamate hydrochloride], the IC50 worked out at 8.3 nM.

The compound `CN(C[C@](CCCN1CCC2(CC1)c1ccccc1C[S@+]2[O-])(c1ccc(Cl)c(Cl)c1)N(C)C(=O)Oc1cccc(F)c1)C(=O)CC(F)(F)F` [Compound No. 634, 3-fluorophenyl{1-(3,3,3-trifluoro-N-methylpropanamido)-2-(S)-(3,4-dichlorophenyl)-5-[spiro(benzo(c)thiophene-(2S)-oxido-1(3H),4′-piperidin)-1′-yl]pentan-2-yl}methylcarbamate hydrochloride] gave an IC50 of 2 nM.

As for `COc1ccccc1OC(=O)N(C)[C@](CCCN1CCC2(CC1)c1ccccc1C[S@+]2[O-])(CN(C)C(=O)CC(F)(F)F)c1ccc(Cl)c(Cl)c1` [Compound No. 636, 2-methoxyphenyl{1-(3,3,3-trifluoro-N-methylpropanamido)-2-(S)-(3,4-dichlorophenyl)-5-[spiro(benzo(c)thiophene-(2S)-oxido-1(3H),4′-piperidin)-1′-yl]pentan-2-yl}methylcarbamate hydrochloride], the IC50 turned out to be 0.9 nM.

The compound `COc1cccc(OC(=O)N(C)[C@](CCCN2CCC3(CC2)c2ccccc2C[S@+]3[O-])(CN(C)C(=O)CC(F)(F)F)c2ccc(Cl)c(Cl)c2)c1` [Compound No. 637, 3-methoxyphenyl{1-(3,3,3-trifluoro-N-methylpropanamido)-2-(S)-(3,4-dichlorophenyl)-5-[spiro(benzo(c)thiophene-(2S)-oxido-1(3H), 41-piperidin)-1′-yl]pentan-2-yl}methylcarbamate hydrochloride] had an IC50 of 1.7 nM.

Compound `CN(C[C@](CCCN1CCC2(CC1)c1ccccc1C[S@+]2[O-])(c1ccc(Cl)c(Cl)c1)N(C)C(=O)Oc1ccccc1F)C(=O)CC(F)(F)F` [Compound No. 638, 2-fluorophenyl{1-(3,3,3-trifluoro-N-methylpropanamido)-2-(S)-(3,4-dichlorophenyl)-5-[spiro(benzo(c)thiophene-(2S)-oxido-1(3H),4′-piperidin)-1′-yl]pentan-2-yl}methylcarbamate hydrochloride] registered an IC50 of 6 nM.

The compound `CN(C[C@](CCCN1CCC2(CC1)c1ccccc1C[S@+]2[O-])(c1ccc(Cl)c(Cl)c1)N(C)C(=O)Oc1ccc(F)cc1)C(=O)CC(F)(F)F` [Compound No. 639, 4-fluorophenyl{1-(3,3,3-trifluoro-N-methylpropanamido)-2-(S)-(3,4-dichlorophenyl)-5-[spiro(benzo(c)thiophene-(2S)-oxido-1(3H),4′-piperidin)-1′-yl]pentan-2-yl}methylcarbamate hydrochloride] displayed an IC50 of 4 nM.

The compound `COc1ccc(OC(=O)N(C)[C@](CCCN2CCC3(CC2)c2ccccc2C[S@+]3[O-])(CN(C)C(=O)CC(F)(F)F)c2ccc(Cl)c(Cl)c2)cc1` [Compound No. 640, 4-methoxyphenyl{1-(3,3,3-trifluoro-N-methylpropanamido)-2-(s)-(3,4-dichlorophenyl)-5-[spiro(benzo(c)thiophene-(2S)-oxido-1(3H),4′-piperidin)-1′-yl]pentan-2-yl}methylcarbamate hydrochloride] displayed an IC50 of 6 nM.

In turn, `CN(C[C@](CCCN1CCC2(CC1)c1ccccc1C[S@+]2[O-])(c1ccc(Cl)c(Cl)c1)N(C)C(=O)Oc1ccccc1)C(=O)C(F)(F)F` [Compound No. 642, phenyl{1-(2,2,2-trifluoro-N-methylacetamide)-2-(S)-(3,4-dichlorophenyl)-5-[spiro(benzo(c)thiophene-(2S)-oxido-1(3H),4′-piperidin)-1′-yl]pentan-2-yl}methylcarbamate hydrochloride] yielded an IC50 of 3.7 nM.

The compound `Cc1ccc(OC(=O)N(C)[C@](CCCN2CCC3(CC2)c2ccccc2C[S@+]3[O-])(CN(C)C(=O)CC(F)(F)F)c2ccc(Cl)c(Cl)c2)cc1` [Compound No. 652, 4-tolyl{1-(3,3,3-trifluoro-N-methylpropanamido)-2-(S)-(3,4-dichlorophenyl)-5-[spiro(benzo(c)thiophene-(2S)-oxido-1(3H),4′-piperidin)-1′-yl]pentan-2-yl}methylcarbamate hydrochloride] displayed an IC50 of 2.7 nM.

Consider `CN(C[C@](CCCN1CCC2(CC1)c1ccccc1C[S@+]2[O-])(c1ccc(Cl)c(Cl)c1)N(C)C(=O)Oc1cccc(Cl)c1Cl)C(=O)CC(F)(F)F` [Compound No. 653, 2,3-dichlorophenyl{1-(3,3,3-trifluoro-N-methylpropanamido)-2-(S)-(3,4-dichlorophenyl)-5-[spiro(benzo(c)thiophene-(2S)-oxido-1(3H),4′-piperidin)-1′-yl]pentan-2-yl}methylcarbamate hydrochloride], for which the IC50 was 1.6 nM.

The same test, now with this note: Table 2; inhibition of [3H]-Substance P (0.5 nM) binding to hNK1-CHO cells, pseudo-Hill analysis; read-out: NK-1.
As to `COc1cc(COC[C@](CCCN2CCC3(CC2)c2ccccc2C[S@+]3[O-])(c2ccc(Cl)c(Cl)c2)N(C)C(=O)NC2CCCCC2)cc(OC)c1OC` [Compound No. 599, 1-{1-(3,4,5-trimethoxybenzyloxy)-2-(S)-(3,4-dichlorophenyl)-5-[spiro(benzo(c)thiophene-(2S)-oxido-1(3H),4′-piperidin)-1′-yl]pentan-2-yl}-3-cyclohexyl-1-methylurea hydrochloride], the IC50 is 0.73 nM.

In the case of `COc1cc(COC[C@](CCCN2CCC3(CC2)c2ccccc2C[S@+]3[O-])(c2ccc(Cl)c(Cl)c2)N(C)C(=O)Nc2cccc(F)c2)cc(OC)c1OC` [Compound No. 615, 1-{1-(3,4,5-trimethoxybenzyloxy)-2-(S)-(3,4-dichlorophenyl)-5-[spiro(benzo(c)thiophene-(2S)-oxido-1(3H),4′-piperidin)-1′-yl]pentan-2-yl}-3-(3-fluorophenyl)-1-methylurea hydrochloride], the IC50 worked out at 0.58 nM.

With `COc1cc(COC[C@](CCCN2CCC3(CC2)c2ccccc2C[S@+]3[O-])(c2ccc(Cl)c(Cl)c2)N(C)C(=O)Nc2cccc(C(F)(F)F)c2)cc(OC)c1OC` [Compound No. 616, 1-{1-(3,4,5-trimethoxybenzyloxy)-2-(S)-(3,4-dichlorophenyl)-5-[spiro(benzo(c)thiophene-(2S)-oxido-1(3H),4′-piperidin)-1′-yl]pentan-2-yl}-3-[3-(trifluoromethyl)phenyl]-1-methylurea hydrochloride], the IC50 was found to be 2 nM.

Take `COc1cc(COC[C@](CCCN2CCC3(CC2)c2ccccc2C[S@+]3[O-])(c2ccc(Cl)c(Cl)c2)N(C)C(=O)NCc2ccccc2F)cc(OC)c1OC` [Compound No. 617, 1-{1-(3,4,5-trimethoxybenzyloxy)-2-(S)-(3,4-dichlorophenyl)-5-[spiro(benzo(c)thiophene(2S)-oxido-1(3H),4′-piperidin)-1′-yl]pentan-2-yl}-3-(2-fluorobenzyl)-1-methylurea hydrochloride]: the IC50 came out at 0.54 nM.

As to `COc1cc(COC[C@](CCCN2CCC3(CC2)c2ccccc2C[S@+]3[O-])(c2ccc(Cl)c(Cl)c2)N(C)C(=O)NCc2cccc(F)c2)cc(OC)c1OC` [Compound No. 618, 1-{1-(3,4,5-trimethoxybenzyloxy)-2-(S)-(3,4-dichlorophenyl)-5-[spiro(benzo(c)thiophene(2S)-oxido-1(3H),4′-piperidin)-1′-yl]pentan-2-yl}-3-(3-fluorobenzyl)-1-methylurea hydrochloride], the IC50 is 1.2 nM.

With `COc1cc(COC[C@](CCCN2CCC3(CC2)c2ccccc2C[S@+]3[O-])(c2ccc(Cl)c(Cl)c2)N(C)C(=O)NCc2ccc(F)cc2)cc(OC)c1OC` [Compound No. 621, 1-{1-(3,4,5-trimethoxybenzyloxy)-2-(S)-(3,4-dichlorophenyl)-5-[spiro(benzo(c)thiophene(2S)-oxido-1(3H),4′-piperidin)-1′-yl]pentan-2-yl}-3-(4-fluorobenzyl)-1-methylurea hydrochloride], the IC50 was determined as 0.94 nM.
